Values of other authors in patent publication US20060024360A1, “Stable injectable composition of alpha tocopheryl succinate, analogues and salts thereof” (SD Pharmaceuticals, Inc., priority 2004, published 2006).
Structures can show the parent of a compound that is named as a salt.

Experiments:
[1] = tested on: mouse cancer line (C1271)
melanoma = conditions: mice
[2] = tested on: color cancer liver metastases; conditions: in vivo
malignant mesothelioma = conditions: immunocompromised mice
[3] = tested on: human gastric carcinoma cell; conditions: human cells

SMILES	induction of apoptosis [1]	other results
Cc1c(C)c2c(c(C)c1O)CC[C@@](C)(CCC[C@H](C)CCC[C@H](C)CCCC(C)C)O2 (racemic) [alpha-tocopherol, (±)-(2RS,4′RS,8′RS)-2,5,7,8-tetramethyl-2-(4′,8′, 12′-trimethyltridecyl)-6-chromanol]	not apoptogenic	
CC(=O)Oc1c(C)c(C)c2c(c1C)CCC(C)(CCC[C@H](C)CCC[C@H](C)CCCC(C)C)O2 (stereo partly drawn) [alpha-tocopheryl acetate]	not apoptogenic	
Cc1c(C)c2c(c(C)c1OC(=O)CC(=O)O)CCC(C)(CCCC(C)CCCC(C)CCCC(C)C)O2 (stereo not drawn) [alpha-tocopheryl malonate, Alpha-tocopheryl malonate]	induce apoptosis	
Cc1c(C)c2c(c(C)c1OC(=O)c1cccnc1)CC[C@@](C)(CCC[C@H](C)CCC[C@H](C)CCCC(C)C)O2 [alpha-tocopheryl nicotinate]	not apoptogenic	
Cc1c(C)c2c(c(C)c1OC(=O)C(=O)O)CCC(C)(CCCC(C)CCCC(C)CCCC(C)C)O2 (stereo not drawn) [alpha-tocopheryl oxalate, Alpha-tocopheryl oxalate]	induce apoptosis	relative potency among alpha-tocopheryl derivatives tested [1]: most potent
Cc1c(C)c2c(c(C)c1OC(=O)CCCCCC(=O)O)CCC(C)(CCCC(C)CCCC(C)CCCC(C)C)O2 (stereo not drawn) [alpha-tocopheryl pimelate, Alpha-tocopheryl pimelate]	not apoptogenic	
CCOC(=O)CCC(=O)Oc1c(C)c(C)c2c(c1C)CCC(C)(CCCC(C)CCCC(C)CCCC(C)C)O2 (stereo not drawn) [alpha-tocopheryl succinate ethyl ester]	not apoptogenic	
Cc1c(C)c2c(c(C)c1OC(=O)CCC(=O)O)CC[C@@](C)(CCC[C@H](C)CCC[C@H](C)CCCC(C)C)O2 [alpha-tocopheryl succinate]	induce apoptosis	melanoma growth (melanoma): inhibited melanoma growth; liver metastases [2]: inhibiting color cancer liver metastases; malignant mesothelioma (malignant mesothelioma): suppressed malignant mesothelioma; gastric carcinoma cell growth [3]: inhibits human gastric carcinoma cell growth
Cc1c(O)cc2c(c1C)O[C@](C)(CCC[C@H](C)CCC[C@H](C)CCCC(C)C)CC2 [gamma-tocopherol, Gamma-tocopherol]	not apoptogenic	
